Numbers after ± are expanded uncertainties.
Experiment: mn = molality of the nth substance listed, in mol/kg
Settings: 100 kPa, Liquid; for speed of sound: Frequency=3 MHz, Sing-around technique in a fixed-path interferometer; for mass density: Vibrating tube method

O=S(=O)([O-])C(F)(F)F.O=S(=O)([O-])C(F)(F)F.[Mg+2] [magnesium triflate] + CN(C)C=O
Settings | mass density, 298.15 K [kg/m3] | mass density, 303.15 K [kg/m3] | mass density, 308.15 K [kg/m3] | mass density, 313.15 K [kg/m3] | mass density, 318.15 K [kg/m3] | speed of sound, 298.15 K [m/s] | speed of sound, 303.15 K [m/s] | speed of sound, 308.15 K [m/s] | speed of sound, 313.15 K [m/s] | speed of sound, 318.15 K [m/s]
m1 = 0.01036 | 946.019 ± 0.43 | 941.245 ± 0.43 | 936.47 ± 0.43 | 931.673 ± 0.43 | 926.87 ± 0.43 | – | – | – | – | –
m1 = 0.01706 | 947.369 ± 0.42 | 942.601 ± 0.43 | 937.828 ± 0.43 | 933.038 ± 0.43 | 928.233 ± 0.43 | 1457.4 ± 1.3 | 1438.2 ± 1.3 | 1418.9 ± 1.3 | 1399.7 ± 1.3 | 1380.5 ± 1.3
m1 = 0.0217 | 948.297 ± 0.42 | 943.537 ± 0.42 | 938.762 ± 0.42 | 933.973 ± 0.42 | 929.172 ± 0.42 | 1457.3 ± 1.3 | 1438.2 ± 1.3 | 1418.9 ± 1.3 | 1399.8 ± 1.3 | 1380.7 ± 1.3
m1 = 0.03662 | 951.268 ± 0.42 | 946.512 ± 0.42 | 941.741 ± 0.42 | 936.956 ± 0.42 | 932.159 ± 0.42 | 1457.3 ± 1.3 | 1438.2 ± 1.3 | 1419.1 ± 1.3 | 1400 ± 1.3 | 1380.9 ± 1.3
m1 = 0.0512 | 954.144 ± 0.42 | 949.392 ± 0.42 | 944.627 ± 0.42 | 939.848 ± 0.42 | 935.055 ± 0.42 | 1457.3 ± 1.3 | 1438.2 ± 1.3 | 1419.1 ± 1.3 | 1400.1 ± 1.3 | 1381.1 ± 1.3
m1 = 0.06466 | 956.788 ± 0.41 | 952.038 ± 0.41 | 947.275 ± 0.41 | 942.499 ± 0.41 | 937.711 ± 0.41 | 1457.2 ± 1.3 | 1438.2 ± 1.3 | 1419.1 ± 1.3 | 1400.2 ± 1.3 | 1381.2 ± 1.3
m1 = 0.082 | 960.152 ± 0.41 | 955.393 ± 0.41 | 950.635 ± 0.41 | 945.853 ± 0.41 | 941.072 ± 0.41 | 1457.1 ± 1.3 | 1438.1 ± 1.3 | 1419.1 ± 1.3 | 1400.2 ± 1.3 | 1381.3 ± 1.3
m1 = 0.102 | 964.032 ± 0.41 | 959.291 ± 0.41 | 954.537 ± 0.41 | 949.768 ± 0.41 | 944.991 ± 0.41 | 1456.9 ± 1.3 | 1438 ± 1.3 | 1419.1 ± 1.3 | 1400.2 ± 1.3 | 1381.5 ± 1.3
m1 = 0.1234 | 968.107 ± 0.41 | 963.366 ± 0.41 | 958.615 ± 0.41 | 953.853 ± 0.41 | 949.079 ± 0.41 | 1456.7 ± 1.3 | 1437.9 ± 1.3 | 1419 ± 1.3 | 1400.3 ± 1.3 | 1381.5 ± 1.3
m1 = 0.1544 | 974.074 ± 0.41 | 969.343 ± 0.41 | 964.6 ± 0.41 | 959.846 ± 0.41 | 955.083 ± 0.41 | 1456.4 ± 1.3 | 1437.6 ± 1.3 | 1418.9 ± 1.3 | 1400.2 ± 1.3 | 1381.6 ± 1.3

O=S(=O)([O-])C(F)(F)F.O=S(=O)([O-])C(F)(F)F.[Sr+2] [strontium trifluoromethanesulfonate] + CN(C)C=O
Settings | mass density, 298.15 K [kg/m3] | mass density, 303.15 K [kg/m3] | mass density, 308.15 K [kg/m3] | mass density, 313.15 K [kg/m3] | mass density, 318.15 K [kg/m3] | speed of sound, 298.15 K [m/s] | speed of sound, 303.15 K [m/s] | speed of sound, 308.15 K [m/s] | speed of sound, 313.15 K [m/s] | speed of sound, 318.15 K [m/s]
m1 = 0.01062 | 946.522 ± 0.51 | 941.756 ± 0.51 | 936.972 ± 0.51 | 932.186 ± 0.51 | 927.378 ± 0.51 | 1457.2 ± 1.3 | 1438 ± 1.3 | 1418.7 ± 1.3 | 1399.5 ± 1.3 | 1380.3 ± 1.3
m1 = 0.01763 | 948.231 ± 0.5 | 943.466 ± 0.5 | 938.685 ± 0.51 | 933.888 ± 0.5 | 929.08 ± 0.5 | 1457.2 ± 1.3 | 1438 ± 1.3 | 1418.7 ± 1.3 | 1399.6 ± 1.3 | 1380.4 ± 1.3
m1 = 0.02656 | 950.395 ± 0.5 | 945.626 ± 0.5 | 940.844 ± 0.5 | 936.049 ± 0.5 | 931.241 ± 0.5 | 1457.1 ± 1.3 | 1438 ± 1.3 | 1418.7 ± 1.3 | 1399.6 ± 1.3 | 1380.5 ± 1.3
m1 = 0.03847 | 953.244 ± 0.5 | 948.482 ± 0.5 | 943.704 ± 0.5 | 938.91 ± 0.5 | 934.105 ± 0.5 | 1457 ± 1.3 | 1437.9 ± 1.3 | 1418.7 ± 1.3 | 1399.6 ± 1.3 | 1380.6 ± 1.3
m1 = 0.04908 | 955.781 ± 0.49 | 951.013 ± 0.49 | 946.233 ± 0.49 | 941.439 ± 0.49 | 936.634 ± 0.49 | 1456.8 ± 1.3 | 1437.8 ± 1.3 | 1418.6 ± 1.3 | 1399.6 ± 1.3 | 1380.6 ± 1.3
m1 = 0.06765 | 960.189 ± 0.49 | 955.42 ± 0.49 | 950.641 ± 0.49 | 945.845 ± 0.49 | 941.04 ± 0.49 | 1456.5 ± 1.3 | 1437.6 ± 1.3 | 1418.5 ± 1.3 | 1399.5 ± 1.3 | 1380.7 ± 1.3
m1 = 0.08503 | 964.269 ± 0.49 | 959.5 ± 0.49 | 954.718 ± 0.49 | 949.923 ± 0.49 | 945.118 ± 0.49 | 1456.2 ± 1.3 | 1437.3 ± 1.3 | 1418.3 ± 1.3 | 1399.5 ± 1.3 | 1380.6 ± 1.3
m1 = 0.1067 | 969.35 ± 0.48 | 964.567 ± 0.48 | 959.781 ± 0.48 | 954.985 ± 0.48 | 950.18 ± 0.48 | 1456.1 ± 1.3 | 1437.1 ± 1.3 | 1418.2 ± 1.3 | 1399.3 ± 1.3 | 1380.6 ± 1.3
m1 = 0.1286 | 974.403 ± 0.48 | 969.629 ± 0.48 | 964.845 ± 0.48 | 960.047 ± 0.48 | 955.242 ± 0.48 | 1455.4 ± 1.3 | 1436.7 ± 1.3 | 1417.9 ± 1.3 | 1399.1 ± 1.3 | 1380.5 ± 1.3
m1 = 0.1612 | 981.851 ± 0.48 | 977.074 ± 0.48 | 972.285 ± 0.48 | 967.485 ± 0.48 | 962.676 ± 0.48 | 1454.7 ± 1.3 | 1436.1 ± 1.3 | 1417.4 ± 1.3 | 1398.8 ± 1.3 | 1380.2 ± 1.3

O=S(=O)([O-])C(F)(F)F.O=S(=O)([O-])C(F)(F)F.[Mg+2] [magnesium triflate] + CC(=O)N(C)C
Settings | mass density, 298.15 K [kg/m3] | mass density, 303.15 K [kg/m3] | mass density, 308.15 K [kg/m3] | mass density, 313.15 K [kg/m3] | mass density, 318.15 K [kg/m3] | speed of sound, 298.15 K [m/s] | speed of sound, 303.15 K [m/s] | speed of sound, 308.15 K [m/s] | speed of sound, 313.15 K [m/s] | speed of sound, 318.15 K [m/s]
m1 = 0.009142 | 938.272 ± 0.45 | 933.667 ± 0.46 | 929.056 ± 0.46 | 924.433 ± 0.46 | 919.8 ± 0.46 | 1456.4 ± 1.3 | 1436.7 ± 1.3 | 1416.9 ± 1.3 | 1397.2 ± 1.3 | 1377.7 ± 1.3
m1 = 0.01469 | 939.459 ± 0.45 | 934.86 ± 0.45 | 930.249 ± 0.45 | 925.632 ± 0.46 | 921.007 ± 0.46 | 1456.7 ± 1.3 | 1436.9 ± 1.3 | 1417.2 ± 1.3 | 1397.6 ± 1.3 | 1378.1 ± 1.3
m1 = 0.02251 | 941.134 ± 0.45 | 936.55 ± 0.45 | 931.947 ± 0.45 | 927.333 ± 0.45 | 922.714 ± 0.45 | 1457 ± 1.3 | 1437.3 ± 1.3 | 1417.7 ± 1.3 | 1398.1 ± 1.3 | 1378.6 ± 1.3
m1 = 0.03194 | 943.119 ± 0.44 | 938.53 ± 0.44 | 933.932 ± 0.44 | 929.324 ± 0.44 | 924.71 ± 0.45 | 1457.4 ± 1.3 | 1437.8 ± 1.3 | 1418.2 ± 1.3 | 1398.6 ± 1.3 | 1379.2 ± 1.3
m1 = 0.04489 | 945.817 ± 0.43 | 941.246 ± 0.43 | 936.655 ± 0.43 | 932.054 ± 0.44 | 927.445 ± 0.44 | 1457.9 ± 1.3 | 1438.3 ± 1.3 | 1418.8 ± 1.3 | 1399.3 ± 1.3 | 1379.9 ± 1.3
m1 = 0.05714 | 948.308 ± 0.43 | 943.72 ± 0.43 | 939.134 ± 0.44 | 934.538 ± 0.44 | 929.945 ± 0.44 | 1458.3 ± 1.3 | 1438.8 ± 1.3 | 1419.3 ± 1.3 | 1399.9 ± 1.3 | 1380.6 ± 1.3
m1 = 0.07138 | 951.266 ± 0.43 | 946.705 ± 0.43 | 942.126 ± 0.43 | 937.537 ± 0.43 | 932.941 ± 0.43 | 1458.9 ± 1.3 | 1439.4 ± 1.3 | 1419.9 ± 1.3 | 1400.6 ± 1.3 | 1381.3 ± 1.3
m1 = 0.08889 | 954.777 ± 0.43 | 950.211 ± 0.43 | 945.637 ± 0.43 | 941.054 ± 0.43 | 936.462 ± 0.42 | 1459.5 ± 1.3 | 1440.1 ± 1.3 | 1420.7 ± 1.3 | 1401 ± 1.3 | 1382.1 ± 1.3
m1 = 0.1071 | 958.463 ± 0.42 | 953.905 ± 0.42 | 949.338 ± 0.41 | 944.772 ± 0.42 | 940.1 ± 0.42 | 1460 ± 1.3 | 1440.7 ± 1.3 | 1421.3 ± 1.3 | 1401.9 ± 1.3 | 1382.8 ± 1.3
m1 = 0.1341 | 963.77 ± 0.42 | 959.1 ± 0.41 | 954.5 ± 0.41 | 950 ± 0.41 | 945.4 ± 0.42 | 1460.7 ± 1.3 | 1441.5 ± 1.3 | 1422.3 ± 1.3 | 1403.2 ± 1.3 | 1384.2 ± 1.3

From the NIST ThermoML archive (doi:10.1016/j.jct.2015.08.033)
